Experimental findings from paper PMC11899342, “Novel Triazeneindole Antibiotics: Synthesis and Hit-to-Lead Optimization” (International Journal of Molecular Sciences, 2025) are described below.

The nature of data set [1]: Caco-2 cell monolayer permeability. The following applies: human, Caco-2; read-out: Asymmetry index. It is filed as in vitro ADME, human. The protocol:
(§1) The MultiScreen Caco-2 (ATCC cat. # HTB-37) test system (Millipore, St. Charles, MO, USA) was used to study the transport through a cell monolayer, according to the manufacturer’s instructions. Briefly, a study of transport from the apical membrane to the basolateral (A-B) area and in the opposite direction (B-A) was carried out on a 21-day culture of Caco-2 at a 1 µM concentration of the tested compound for 2 h. Monolayer integrity was verified by measuring electrical resistance (TEER) using a Millicell-ERS instrument. A TEER value of at least 3 KOhm/well was determined to be acceptable.
Background: Passage across Caco-2 layers is used to estimate intestinal permeability.

A further data set deals with Caco-2 cells. The data set can be described thus: Caco-2 cell monolayer permeability. It is filed as in vitro ADME, human. The protocol:
as §1

The next data set in a line: Stability in rat plasma. The settings on record: 37 °C, 1 μM. It is filed as in vitro ADME. The method, then:
For the experiment, human and rat plasma (SD) was thawed at room temperature and centrifuged for 5 min at 1500× g. Eucatropine (Sigma-Aldrich, USA), which is unstable in human and rat plasma, was used as a control compound.
For stability evaluation, 3 μL of 100X solutions of the tested or control compound (0.1 mM) was added to 297 μL of the corresponding plasma (prewarmed to 37 °C) to a final concentration of 1 μM. The plasma samples were incubated with the test and control compounds in the 0.65 mL microtubes at 37 °C and under 300 rpm rotation. After 15, 30, 60, and 240 min, 30 μL aliquots were taken into 1.1 mL microtubes with 180 μL of chilled acetonitrile with an internal standard of 200 ng/mL tolbutamide (Fluka). The tubes were stirred and kept at 4 °C for 15 min, then centrifuged at 1500× g for 10 min. A total of 200 μL of the supernatants was transferred into microtubes and stored at −70 °C until UPLC–MS/MS analysis.

A short description of data set [2]: Stability in artificial gastric juice. The following applies: pH 1.2, pepsin, 37 °C, read-out: t1/2 in artificial gastric juice. It is filed as in vitro ADME. The protocol:
During ADME studies, the concentration of the compounds was analyzed using ultra-performance liquid chromatography (UPLC) coupled with tandem mass spectrometry (MS/MS) in the multiple reaction monitoring (MRM) mode. A quantitative analysis was performed using the internal standard (IS) calibration method, with tolbutamide as the IS.
The analyses were carried out on a system composed of an Agilent 1290 Infinity UPLC system (Agilent Technologies, USA) connected by ESI interface to a tandem quadrupole mass spectrometer QTRAP 6500 (AB Sciex Corp, Framingham, MA, USA). The separation was conducted on an YMC Triart C18 50 × 2 mm, 1.9 μm column, which was kept at 35 °C. The samples were cooled to 8 °C in an autosampler, and aliquots of 1 µL were delivered onto the column. Elution was performed using gradients of A (0.1% formic acid in water) and B (0.1% formic acid in acetonitrile), at the flow rate 0.35 mL/min. […] The declustering potential was 31 V for BX and 93 V for IS, resepectively; the collision energy was attuned to 17 eV; the collision cell exit potential was 10 V for BX and 8 V for IS MRM, respectively; the analyses were recorded for 305 → 234 (BX) and 271 → 172 (tolbutamide). […]

Data set [3] is described as follows: Stability in human liver microsomes. It is filed as in vitro ADME. The protocol: The liver metabolism of the substance was studied in the microsomal fractions of human and rat livers (XenoTech HMMCPL, RTMCPL, Kansas City, KS, USA) in the presence of the cofactor of the oxidative enzymes NADPH (AppliChem, Darmstadt, Germany).
The plate was incubated in a thermal shaker for 10 min at 400 rpm and 37 °C; then, 2.4 µL of 100× stocks of the tested substance was added into each well. A total of 30 µL of 8× cofactor solution was added to each experimental well (two replicates), 30 µL of deionized water was added to one control well, and all wells were mixed three times using a multichannel pipette with a volume of 100 µL. After mixing, the plate was placed in a thermal shaker at 400 rpm and 37 °C. The reactions were terminated at the following time points—0, 5, 10, 15, 20, and 30 min—by transferring 30 µL of the reaction mixture from the corresponding well to 1.1 mL microtubes and adding 180 µL of acetonitrile with internal standard 200 ng/mL tolbutamide (Fluka, Switzerland). To evaluate the stability of the substance in the microsomes without the cofactor, two aliquots were taken from the control well, and the reactions were terminated at 0 and 30 min time points. […] Then, the samples were centrifuged for 10 min at 1500× g, and 150 μL of the supernatant was taken for UPLC–MS/MS analysis.
On the technique in general: Liver microsomes are vesicles of endoplasmic reticulum, rich in cytochrome P450 enzymes.

As usually defined, the microsomal CLint is the capacity of the preparation to metabolise the compound, expressed as a volume cleared per time. A higher microsomal CLint goes with rapid turnover. In the case of `CCOC(=O)c1[nH]c2cc(F)ccc2c1/N=N/N1CCCC1` [BX-SI043, Ethyl (E)-6-fluoro-3-(pyrrolidin-1-yldiazenyl)-1H-indole-2-carboxylate], in data set [1], the efflux ratio at 2 h, 1 µM turned out to be 0.37. In the data set on Caco-2 cells (Caco-2, 1 µM, 2 h), the “Papp A-B” value was 0.51 10^-6 sm/s and the “Papp B-A” value is on record as 0.19 10^-6 sm/s. For the same compound, the Mass balance with Caco-2 cells (Caco-2, first value: A-B / apical) was found to be 49%. Further, in the data set on Caco-2 cells (Caco-2, first value: A-B / apical, listed as ВХ-SI043), the Mass balance turned out to be 49%. This compound also displayed a Mass balance with Caco-2 cells (Caco-2, second value: B-A / basolateral) of 25.1%. Besides, in the data set “Stability in rat plasma”, the “remaining in rat plasma after 15 min” value was determined as 1.7%. For the same compound, the half-life at 1 µM in data set [2] is under 10 min. For the same compound, the “Remaining after 30 min” value in data set [3] (NADPH) is 0.00%. In data set [3] (pH 7.4, NADPH), this compound displayed a half-life of 2.73 min and a microsomal CLint of 1020 µL/min/mg.
